As usually defined, the GI50 is the concentration that inhibits growth by half.

This is an account of results in US7671054B1, “Reverse-turn mimetics and method relating thereto” (Choongwae Pharma Corporation, priority 2001, dated 2010).

Molecules are shown by their SMILES.

For one assay, the system named is HCT116 cells. In words: Growth inhibition assay (MTS). In kind it is cell-based. The following applies: Homo sapiens, HCT-116, 48 h, Table 5; HCT116 cells, 48 hours treatment, MTS; read-out: Growth Inhibition (GI50, uM) HCT116. How it is done:
(§1) SW480 or HCT116 cells were placed into 96 well microplate (10^4cells/well) and incubated for 24 hours at 37° C. 20 μl of [3-(4,5-dimethylthiazol-2-yl)-5-(3-carboxyphenyl)-2-(4-sulfophenyl)-2H-tetrazolium, inner salt](MTS) solution (Promega) was added into each well and the absorbance after 2 hour incubation at 37° C. (negative control) was read. And then, the cells were treated with TCF4 compound at various concentrations for 48 hours. 20 μl of MTS solution (Promega) was added into each well and incubated for 2 hour at 37° C. Cell viability was measured by reading the absorbance at 490 nm using a microplate reader (Molecular device) and cytotoxicity of a compound at each concentration was calculated.
as §1, with “a test” for “TCF4”
As for `C=CCN1CC(=O)N2[C@@H](Cc3ccc(NC=O)cc3)C(=O)N(Cc3ccc(F)cc3F)C[C@@H]2N1C(=O)NCc1ccccc1` [Compound 129], the GI50 came to 3.1 ± 0.3 µM.

In the case of `[2H]c1cc(C[C@H]2C(=O)N(Cc3cccc4ccccc34)C[C@H]3N2C(=O)CN(C)N3C(=O)NCc2ccccc2)cc([2H])c1O` [Compound 136], the GI50 amounted to 3 ± 0.9 µM.

Consider `CN1CC(=O)N2[C@@H](Cc3ccc(O)cc3)C(=O)N(Cc3ccc(F)cc3C(F)(F)F)C[C@@H]2N1C(=O)NCc1ccccc1` [Compound 23], for which the GI50 amounted to 25.4 µM.

For `C[C@H]1[C@@H]2N(C(=O)CN(C)N2C(=O)NCc2ccccc2)[C@@H](Cc2ccc(O)cc2)C(=O)N1Cc1ccc(F)cc1F` [Compound 45], the GI50 came out at 2.9 ± 0.4 µM.

Regarding `C#CCNC(=O)c1ccccc1Cn1ncc2c(CN3C[C@H]4N(C(=O)CN(C)N4C(=O)NCc4ccccc4)[C@@H](Cc4ccc(O)cc4)C3=O)cccc21` [Compound 80], the GI50 came out at 3.9 ± 0.6 µM.

With `C=CCN1CC(=O)N2[C@@H](Cc3ccc(O)cc3)C(=O)N(Cc3ccc(OC(F)(F)F)cc3)C[C@@H]2N1C(=O)NCc1ccccc1` [Compound 181], the GI50 worked out at 2.3 ± 0.1 µM.

Regarding `C#CCN1CC(=O)N2[C@@H](Cc3ccc(O)cc3)C(=O)N(Cc3cccc4cccnc34)C[C@@H]2N1C(=O)NCc1ccccc1` [Compound 87], the GI50 was found to be 0.5 ± 0.1 µM.

`C#CCN1CC(=O)N2[C@@H](Cc3ccc(O)cc3)C(=O)N(Cc3cccc(N4CCOCC4)c3)C[C@@H]2N1C(=O)NCc1ccccc1` [Compound 91]: the GI50 turned out to be 3.2 ± 0.2 µM.

As for `CC(C)N(C)c1cc([C@@H](C)N2C[C@H]3N(C(=O)CN(C)N3C(=O)NCc3ccccc3)[C@@H](Cc3ccc(O)cc3)C2=O)ccc1F` [Compound 39], the concentration for 50% growth inhibition (GI50) amounted to 19.7 ± 3.3 µM.

On to `CCN(C)c1cccc(CN2C[C@H]3N(C(=O)CN(C)N3C(=O)NCc3ccccc3)[C@@H](Cc3ccc(O)cc3)C2=O)c1` [Compound 25], for which the GI50 came out at 1.81 µM.

On to `CN1CC(=O)N2[C@@H](Cc3ccc(O)cc3)C(=O)N(Cc3ccc4cn[nH]c4c3)C[C@@H]2N1C(=O)NCc1ccccc1` [Compound 64], for which the GI50 stood at 19 ± 1.6 µM.

Turning to `COc1cccc(CN2CC3N(C(=O)CN(C)N3C(=O)NCc3ccccc3)[C@@H](Cc3ccc(O)cc3)C2=O)c1OC` (some centres unmarked) [Compound 21], the GI50 came to 1.67 µM.

On to `C=CCN1CC(=O)N2[C@@H](Cc3ccc(O)cc3)C(=O)N(Cc3ccc(F)c(F)c3)C[C@@H]2N1C(=O)NCc1ccccc1` [Compound 148], for which the GI50 came to 1 ± 0.3 µM.

On to `C=CCN1CC(=O)N2[C@@H](Cc3ccc(O)cc3)C(=O)N([C@@H](C)c3ccc(Cl)c4cccnc34)C[C@@H]2N1C(=O)NCc1ccccc1` [Compound 155], for which the GI50 came to 23.3 ± 1.2 µM.

The assay is the same for the next values; noted with them: Homo sapiens, HCT-116; Table 5; HCT116 cells, 48 hours treatment, MTS; read-out: Growth Inhibition (GI50, uM) HCT116.
For the compound `CN1CC(=O)N2[C@@H](Cc3ccc(O)cc3)C(=O)N(Cc3ccc(F)cc3)C[C@@H]2N1C(=O)NCc1ccccc1` [Compound 12], the GI50 amounted to 1.48 µM.

`C=CCN1CC(=O)N2[C@@H](Cc3ccc(OP(=O)(O)O)cc3)C(=O)N(Cc3ccc(OC)cc3)C[C@@H]2N1C(=O)NCc1ccccc1` [Compound 179]: the GI50 was found to be 1.6 ± 0.1 µM.

Turning to `CN1CC(=O)N2[C@@H](Cc3ccc(O)cc3)C(=O)N(Cc3cccc(F)c3)C[C@@H]2N1C(=O)NCc1ccccc1` [Compound 11], the GI50 was 1.3 µM.

As for `C#CCN1CC(=O)N2[C@@H](Cc3ccc(O)cc3)C(=O)N(Cc3ccc(F)cc3F)[C@@H](C)[C@@H]2N1C(=O)NCc1ccccc1` [Compound 84], the GI50 stood at 9.9 ± 1 µM.

Take `C=CCN1CC(=O)N2[C@@H](Cc3ccc(O)cc3)C(=O)N(Cc3cccc4c3OCCO4)C[C@@H]2N1C(=O)NCc1ccccc1` [Compound 173]: the GI50 amounted to 0.8 ± 0.1 µM.

The next assay concerns SW480 cells. In words: Growth inhibition assay (MTS). The following applies: Homo sapiens, SW480, 48 h, Table 5; SW480 cells, 48 hours treatment, MTS; read-out: Growth Inhibition (GI50, uM) SW480. The assay is classed as cell-based. How it is done: as §1
as §1, with “a test” for “TCF4”
`C=CCN1CC(=O)N2[C@@H](Cc3ccc(NC=O)cc3)C(=O)N(Cc3ccc(F)cc3F)C[C@@H]2N1C(=O)NCc1ccccc1` [Compound 129]: the GI50 came out at 2.9 ± 0.5 µM.

In the case of `[2H]c1cc(C[C@H]2C(=O)N(Cc3cccc4ccccc34)C[C@H]3N2C(=O)CN(C)N3C(=O)NCc2ccccc2)cc([2H])c1O` [Compound 136], the GI50 was 3.4 ± 0.4 µM.

Consider `CN1CC(=O)N2[C@@H](Cc3ccc(O)cc3)C(=O)N(Cc3ccc(F)cc3C(F)(F)F)C[C@@H]2N1C(=O)NCc1ccccc1` [Compound 23], for which the GI50 was found to be 3.9 µM.

For `C[C@H]1[C@@H]2N(C(=O)CN(C)N2C(=O)NCc2ccccc2)[C@@H](Cc2ccc(O)cc2)C(=O)N1Cc1ccc(F)cc1F` [Compound 45], the GI50 worked out at 2.5 ± 0.2 µM.

`C#CCNC(=O)c1ccccc1Cn1ncc2c(CN3C[C@H]4N(C(=O)CN(C)N4C(=O)NCc4ccccc4)[C@@H](Cc4ccc(O)cc4)C3=O)cccc21` [Compound 80]: the GI50 is 4 ± 0.6 µM.

As for `C=CCN1CC(=O)N2[C@@H](Cc3ccc(O)cc3)C(=O)N(Cc3ccc(OC(F)(F)F)cc3)C[C@@H]2N1C(=O)NCc1ccccc1` [Compound 181], the GI50 turned out to be 2.3 ± 0.1 µM.

Take `C#CCN1CC(=O)N2[C@@H](Cc3ccc(O)cc3)C(=O)N(Cc3cccc4cccnc34)C[C@@H]2N1C(=O)NCc1ccccc1` [Compound 87]: the GI50 was found to be 0.6 ± 0.2 µM.

On to `C#CCN1CC(=O)N2[C@@H](Cc3ccc(O)cc3)C(=O)N(Cc3cccc(N4CCOCC4)c3)C[C@@H]2N1C(=O)NCc1ccccc1` [Compound 91], for which the GI50 was 1.5 ± 0.1 µM.

For the compound `CC(C)N(C)c1cc([C@@H](C)N2C[C@H]3N(C(=O)CN(C)N3C(=O)NCc3ccccc3)[C@@H](Cc3ccc(O)cc3)C2=O)ccc1F` [Compound 39], the GI50 is 22.8 ± 6.5 µM.

On to `CCN(C)c1cccc(CN2C[C@H]3N(C(=O)CN(C)N3C(=O)NCc3ccccc3)[C@@H](Cc3ccc(O)cc3)C2=O)c1` [Compound 25], for which the GI50 was 24.5 µM.

For `CN1CC(=O)N2[C@@H](Cc3ccc(O)cc3)C(=O)N(Cc3ccc4cn[nH]c4c3)C[C@@H]2N1C(=O)NCc1ccccc1` [Compound 64], the GI50 stood at 12 ± 0.7 µM.

`COc1cccc(CN2CC3N(C(=O)CN(C)N3C(=O)NCc3ccccc3)[C@@H](Cc3ccc(O)cc3)C2=O)c1OC` (some centres unmarked) [Compound 21]: the GI50 turned out to be 5.25 µM.

For the compound `C=CCN1CC(=O)N2[C@@H](Cc3ccc(O)cc3)C(=O)N(Cc3ccc(F)c(F)c3)C[C@@H]2N1C(=O)NCc1ccccc1` [Compound 148], the GI50 was determined as 1.3 ± 0.1 µM.

For `C=CCN1CC(=O)N2[C@@H](Cc3ccc(O)cc3)C(=O)N([C@@H](C)c3ccc(Cl)c4cccnc34)C[C@@H]2N1C(=O)NCc1ccccc1` [Compound 155], the GI50 worked out at 26.3 ± 2.5 µM.

Staying with this assay, now noted: Homo sapiens; Table 5; SW480 cells, 48 hours treatment, MTS; read-out: Growth Inhibition (GI50, uM) SW480.
On to `CN1CC(=O)N2[C@@H](Cc3ccc(O)cc3)C(=O)N(Cc3ccc(F)cc3)C[C@@H]2N1C(=O)NCc1ccccc1` [Compound 12], for which the GI50 is 2.54 µM.

Consider `C=CCN1CC(=O)N2[C@@H](Cc3ccc(OP(=O)(O)O)cc3)C(=O)N(Cc3ccc(OC)cc3)C[C@@H]2N1C(=O)NCc1ccccc1` [Compound 179], for which the GI50 was determined as 1.5 ± 0.1 µM.

Turning to `CN1CC(=O)N2[C@@H](Cc3ccc(O)cc3)C(=O)N(Cc3cccc(F)c3)C[C@@H]2N1C(=O)NCc1ccccc1` [Compound 11], the GI50 was 1.97 µM.

Consider `C#CCN1CC(=O)N2[C@@H](Cc3ccc(O)cc3)C(=O)N(Cc3ccc(F)cc3F)[C@@H](C)[C@@H]2N1C(=O)NCc1ccccc1` [Compound 84], for which the GI50 came out at 8.4 ± 1.1 µM.

In the case of `C=CCN1CC(=O)N2[C@@H](Cc3ccc(O)cc3)C(=O)N(Cc3cccc4c3OCCO4)C[C@@H]2N1C(=O)NCc1ccccc1` [Compound 173], the GI50 was 0.6 ± 0.1 µM.
